Results as given in patent US11617726B2, “Method for preventing, treating, or ameliorating a microbial infection” (priority 2018, dated 2023).
≈ marks a conversion by molar mass, not a printed value. Read-outs that look alike come from different tables or passages of the source.

How the values were obtained:
[1] = test system: Acinetobacter baumannii isolates and Acinetobacter baumannii ATCC BAA 747; assay: MIC determination by broth dilution method (CLSI M07-A9); type: cell-based; conditions: Acinetobacter baumannii
Method: (§1) Minimum Inhibitory Concentration (MIC) is the lowest concentration of an antimicrobial agent that prevents visible growth of a microorganism in an agar or broth dilution susceptibility test. MIC of thymoquinone was determined by the broth dilution method against 33 MDR Acinetobacter baumannii strains and standard sensitive culture collection strain of Acinetobacter baumannii and Pseudomonas aeruginosa. The MIC of gentamicin was deter lined by broth dilution method against six MDR Acinetobacter baumannii strains and standard sensitive culture collection strains of Acinetobacter baumannii and Pseudomonas aeruginosa. MIC testing was performed according to the recommendations and guidelines of Clinical Laboratory Standard Institutes (CLSI M07-A9; 2012). Clinical and Laboratory Standards Institute (CLSI), “Methods for Dilution Antimicrobial Susceptibility Tests for Bacteria That Grow Aerobically; Approved Standard,” Document M07-A9, Clinical and Laboratory Standards Institute (CLSI), Wayne, Pa., USA, 2012.
(§2) Twenty-one grams of Mueller-Hinton Broth (MHB) was suspended in 1 Liter distilled water and then boiled to dissolve the powder completely. The medium was sterilized by autoclaving at 121° C. for 15 min. After autoclaving, the medium was cooled to room temperature before use or stored in the fridge until used.
(§3) Thymoquinone was weighed and dissolved in Dimethyl sulfoxide (DMSO) to produce a thymoquinone stock solution with a concentration of 5,120 μg/ml. Gentamicin sulfate was weighed and dissolved in water to produce a gentamicin sulfate stock solution with a concentration of 5,120 μg/ml, equivalent to gentamicin base.
(§4) Dilutions of thymoquinone and gentamicin sulfate stock solutions were prepared volumetrically in the MHB as follows:
(§5) One mL of original stock solution (5,120 μg/ml) was added to 9 ml sterile MHB to give the working first dilution (512 μg/mL). 12 sterile 7 mL PJ tubes were arranged in a rack in a row. Each tube contained one mL sterile MHB. Ten tubes were labeled as 128 μg/mL, 64 μg/mL, 32 μg/mL, 16 μg/mL, 8 μg/mL, 4 μg/mL, 2 μg/mL, 1 μg/mL, 0.5 μg/mL and 0.25 μg/mL. The eleventh and twelfth tubes were labeled as positive and negative control, respectively.
(§6) The working dilution (512 μg/mL) was serially diluted to give two-fold dilutions. One mL of the working dilution (512 μg/mL) was dispensed in the first tube (labeled as 128 μg/mL) to give a concentration of 256 μg drug/mL MHB. One mL of the first tube was added to the second tube (labeled as 64 μg/mL) to give a concentration of 128 μg drug/mL MHB. One mL of the second tube was transferred to the third tube (labeled as 32 μg/mL) to give a concentration of 64 μg drug/mL MHB. One mL of the third tube was added to the fourth tube (labeled as 16 μg/mL) to give a concentration of 32 μg drug/mL MHB. One mL of the fourth tube was dispensed in the fifth tube (labeled as 8 μg/mL) to give a concentration of 16 μg drug/mL MHB. One mL of the fifth tube was dispensed in the sixth tube (labeled as 4 μg/mL) to give a concentration of 8 μg drug/mL MHB. One mL of the sixth tube was added to the seventh tube (labeled as 2 μg/mL) to give a concentration of 4 μg drug/mL MHB. One mL of the seventh tube was added to the eighth tube (labeled as 1 μg/mL) to give a concentration of 2 μg drug/mL MHB. One mL of the eighth tube was transferred to the ninth tube (labeled as 0.5 μg/mL) to give a concentration of 1 μg drug/mL MHB. One mL of the ninth tube was transferred to the tenth tube (labeled as 0.25 μg/mL) to give a concentration of 0.5 μg drug/mL MHB. The contents were mixed thoroughly by pipetting up and down three times. One mL of the content of the tenth tube was discarded.
(§7) The inoculum suspensions (at 1-2×10^8 CFU/mL) were diluted 1:100 in MHB to obtain 1×10^6 CFU/mL. One mL of the diluted inoculum suspension (1×10^6 CFU/mL) was transferred to each tube except tube 12.
(§8) All inoculated tubes were incubated for 16-20 hours at 37° C. aerobically. […]

[2] = test system: Pseudomonas aeruginosa ATCC 27853; assay: as above; type: cell-based; conditions: Pseudomonas aeruginosa, ATCC27853, P. aeruginosa ATCC 27853, read-out: MIC
Method: as §1, §2, §3, §4, §5, §6, §7, §8

CC1=CC(=O)C(C(C)C)=CC1=O [Thymoquinone, 2-isopropyl-5-methylbenzo-1,4-quinone]
MIC ([1]; BAA747, A. baumannii ATCC BAA 747 (standard sensitive strain), read-out: MIC): 32 µg/mL (≈ 195 µM)
MIC ([1]; BAA747, isolate AB1, read-out: MIC): 32 µg/mL (≈ 195 µM)
MIC ([1]; BAA747, isolate AB2, read-out: MIC): 32 µg/mL (≈ 195 µM)
MIC ([1]; BAA747, isolate AB3, read-out: MIC): 32 µg/mL (≈ 195 µM)
MIC ([1]; BAA747, isolate AB4, read-out: MIC): 32 µg/mL (≈ 195 µM)
MIC ([1]; BAA747, isolate AB5, read-out: MIC): 32 µg/mL (≈ 195 µM)
MIC ([1]; BAA747, isolate AB6, read-out: MIC): 64 µg/mL (≈ 390 µM)
MIC ([1]; BAA747, isolate AB7, read-out: MIC): 32 µg/mL (≈ 195 µM)
MIC ([1]; BAA747, isolate AB8, read-out: MIC): 32 µg/mL (≈ 195 µM)
MIC ([1]; BAA747, isolate AB9, read-out: MIC): 32 µg/mL (≈ 195 µM)
MIC ([1]; BAA747, isolate AB10, read-out: MIC): 16 µg/mL (≈ 97.4 µM)
MIC ([1]; BAA747, isolate AB11, read-out: MIC): 32 µg/mL (≈ 195 µM)
MIC ([1]; BAA747, isolate AB12, read-out: MIC): 32 µg/mL (≈ 195 µM)
MIC ([1]; BAA747, isolate AB13, read-out: MIC): 32 µg/mL (≈ 195 µM)
MIC ([1]; BAA747, isolate AB14, read-out: MIC): 32 µg/mL (≈ 195 µM)
MIC ([1]; BAA747, isolate AB15, read-out: MIC): 32 µg/mL (≈ 195 µM)
MIC ([1]; BAA747, isolate AB16, read-out: MIC): 64 µg/mL (≈ 390 µM)
MIC ([1]; BAA747, isolate AB17, read-out: MIC): 64 µg/mL (≈ 390 µM)
MIC ([1]; BAA747, isolate AB18, read-out: MIC): 32 µg/mL (≈ 195 µM)
MIC ([1]; BAA747, isolate AB19, read-out: MIC): 64 µg/mL (≈ 390 µM)
MIC ([1]; BAA747, isolate AB20, read-out: MIC): 64 µg/mL (≈ 390 µM)
MIC ([1]; BAA747, isolate AB21, read-out: MIC): 32 µg/mL (≈ 195 µM)
MIC ([1]; BAA747, isolate AB22, read-out: MIC): 64 µg/mL (≈ 390 µM)
MIC ([1]; BAA747, isolate AB23, read-out: MIC): 32 µg/mL (≈ 195 µM)
MIC ([1]; BAA747, isolate AB24, read-out: MIC): 32 µg/mL (≈ 195 µM)
MIC ([1]; BAA747, isolate AB25, read-out: MIC): 32 µg/mL (≈ 195 µM)
MIC ([1]; BAA747, isolate AB26, read-out: MIC): 64 µg/mL (≈ 390 µM)
MIC ([1]; BAA747, isolate AB27, read-out: MIC): 64 µg/mL (≈ 390 µM)
MIC ([1]; BAA747, isolate AB28, read-out: MIC): 64 µg/mL (≈ 390 µM)
MIC ([1]; BAA747, isolate AB29, read-out: MIC): 64 µg/mL (≈ 390 µM)
MIC ([1]; BAA747, isolate AB30, read-out: MIC): 32 µg/mL (≈ 195 µM)
MIC ([1]; BAA747, isolate AB31, read-out: MIC): 32 µg/mL (≈ 195 µM)
MIC ([1]; BAA747, isolate AB32, read-out: MIC): 32 µg/mL (≈ 195 µM)
MIC ([1]; BAA747, isolate AB33, read-out: MIC): 32 µg/mL (≈ 195 µM)
MIC [2]: 64 µg/mL (≈ 390 µM)
